# Measured values from US20150080380A1, “Therapeutic Uses” (GLAXOSMITHKLINE INTELLECTUAL PROPERTY DEVELOPMENT LIMITED, priority 2012, published 2015).
# Where a name gives a salt, the structure may show the parent alone.
# Tested on: OPC differentiation
# Assay: Oligodendrocyte precursor cell (OPC) differentiation assay (MBP immunocytochemistry)
# Format: cell-based, rat
# Conditions: Rattus norvegicus, Oligodendrocyte precursor cell, 96 h; 0.3 nM-10 uM, 4 days, FIG. 1; read-out: EC50, promotion of OPC differentiation (MBP+ population)
# Protocol: The effects of small-molecule inverse agonists and neutral antagonists of histamine receptor 3 (H3R) on OPC differentiation were determined using the following assay.
# The enriched OPC were obtained from dissecting 2-d-old rat pups forebrain. The pups were anesthetized and decapitated. Then the skull was cut with microdissecting scissors and the cortex was taken out with Dumont forceps. The meninges were removed with fine tips. After repeated trituration of the cortex through cell strainer, cells were re-suspended with the culture media consisted of DMEM supplemented with 20% Fetal bovine serum (Invitrogen, Carlsbad, Calif.), glutamine (4 mM, (Invitrogen), and plated onto poly-D-lysine (PDL, […] for 1 h, Sigma, St. Louis, Mo.)-coated T75 flasks. The resulting cultures were fed with fresh culture media twice per week and almost all the neurons will die due to the high concentration of serum in one week. Then the mixed glial cells were subjected to a series shake-off procedure to obtain pure OPCs two weeks later. Specifically, the mixed glial cells were shaken initially for 1 hour at 100 rpm to remove microglia and shaken for 20-22 hours at 37° C. at 200 rpm to enrich OPCs. OPCs were collected by centrifugation at 1200 rpm for 5 min, re-suspended in basal chemically defined medium (BDM). BDM consisted of DMEM supplemented with N2 medium (100×, Invitrogen), glutamine (4 mM, Invitrogen), BSA (0.1 mg/ml, Sigma), hydrocortisone (20 nM, Sigma), selenium (30 nM, Sigma) and biotin (10 nM, Sigma). OPCs were plated on poly-ornithine (PO, 50 μg/ml for 1 hr, Sigma)-coated culture dishes and maintained in BDM supplemented with bFGF (10 ng/ml, Invitrogen) and PDGF (10 ng/ml, PeproTech, Rocky Hill, N.J.) before experimental manipulation. OPCs were 95% pure judged by A2B5+ staining.
# To initiate OPC differentiation, OPCs were firstly treated with 0.05% Trypsin/EDTA, and seeded into PO-coated 384-mini well plate at a density of 2,000 to 5,000 cells/well. Each test compound was dissolved in DMSO at the concentration of 10 mM for the assay. Compounds at different concentrations (full dose curve, 0.3 nM-10 uM) were added into the OPC culture in duplicates with Echo machine (Thermo, Waltham, Mass.). OPCs were cultured in BDM supplemented with N-acetyl-L-cystenine (30 μM, Sigma) to differentiate into mature oligodendrocytes for 4 days. BDM comprise DMEM (Invitrogen), N2 (100×, Invitrogen), L-Glu (50×, Invitrogen), Sodium Pyruvate (100×, Invitrogen), BSA (0.1%, Sigma), Biotin (10 nM, Sigma), hydrocortisone (10 nM, Sigma). The resulting cultures were fixed with 4% polyformaldehyde (Sigma) and samples were blocked with the blocking buffer (Donkey Serum 3%, Sigma; Triton X-100 0.04%, Sigma). Then fixed cells were incubated in primary antibodies (anti-myelin basic protein, MBP antibody, 600× dilution in blocking buffer) overnight at 4° C., washed thoroughly with PBS and then incubated with Alexa 488-labeled secondary antibody (Molecular Probes, Invitrogen) for 2 h at R.T; then washed thoroughly with PBS and stained with Dapi (1 ug/ml, Sigma),
# The full-plate immunocytochemistry staining was read by an automatic image-based analysis system-Cellomics (Thermo) and the raw data for each well was acquired as percentage of MBP+ population as follows: Pictures of eight fields per well were captured and analyzed quantitatively; the well data is the average of 8 fields. The intensity of anti-MBP staining in the cytosol was used as the criteria of positive objects. The threshold of positive objects was set based on the average intensity of the positive control well, for which triiodothyronine (15 nM) was used. Then the data was analyzed and presented as fold change of the number of the vehicle control well. Graphs were generated by softwares: Microsoft Excel and IDBS XL fits. The curve fitting was performed with software XL fits to derive EC50 of the positive compounds.
# All data except FIG. 1 are given as mean±standard error of the mean (SEM). […]
row,Structure (SMILES),EC50
1,"Clc1ccc(CCCOCCCN2CCCCC2)cc1 [Example compound 6, 1-(3-(3-(4-chlorophenyl)propoxy)propyl)piperidine, reference compound]",14 nM
2,"N=C(NCc1ccc(Cl)cc1)SCCCc1c[nH]cn1 [Example compound 8, 3-(1H-imidazol-4-yl)propyl 4-chlorobenzylcarbamimidothioate dihydrobromide, reference compound]",48 nM

# More lines, now with the values ahead:
row,EC50,Structure (SMILES)
1,31 nM,"CC(C)N1CCC(OC2CCN(c3ccc(C#N)cc3)CC2)CC1 [Example compound 3, 4-(4-((1-isopropylpiperidin-4-yl)oxy)piperidin-1-yl)benzonitrile hydrochloride]"
2,250 nM,"C[C@@H]1CCCN1CCCOc1ccc(-c2ccc(=O)[nH]n2)cc1 [Example compound 7, (R)-6-(4-(3-(2-methylpyrrolidin-1-yl)propoxy)phenyl)pyridazin-3(2H)-one, reference compound]"

# Same assay, conditions: all concentrations (0.3 nM-10 uM), FIG. 1b
row,Structure (SMILES),effect on OPC differentiation
1,"c1ccc(COCCCc2cnc[nH]2)cc1 [Example compound 4, 4-[3-(Phenylmethoxy)propyl]-1H-imidazole oxalate, reference compound]",didn't show any effect
2,"c1nc(CCCC2CCNCC2)c[nH]1 [Example compound 5, 4-[3-(1H-Imidazol-4-yl)propyl]piperidine dihydrobromide, reference compound]",didn't show any effect
